Assay results from publication PMC5309220, “Screening for Small Molecule Inhibitors of Statin-Induced APP C-terminal Toxic Fragment Production” (Frontiers in Pharmacology, 2017).
pIC50: −log10 of the molar value. Where two headings read alike, the source gives them in different places. Blank lines part the entries; values can stand above or below the molecule they belong to.

Assays:
[1] = test system: cerivastatin-induced APPΔC31 production in CHO-7W cells; experiment: APPΔC31 ELISA validation assay, cerivastatin-induced; format: cell-based, Chinese hamster; settings: 24 h; for inhibition of APPΔC31 production (in words) / pIC50: CHO-7W; for inhibition of APPΔC31 production (in words): thapsigargin 0.033-0.3 μM, 2,5-Di-tert-butylhydroquinone 1 and 10 μM; for APPΔC31 Inh. (mean %): CHO-7W cells, test concentration not given; for pIC50: Cricetulus griseus, read-out: IC50 (E), APPΔC31 inhibition
Method: The APPΔC31 ELISA developed in partnership with Enzo Life Sciences (ADI-900-227) follows a standard sandwich ELISA design wherein a monoclonal N-terminal APP-specific antibody is used to coat the wells of the microtiter plate (capture antibody) and the anti-APPΔC31 cleavage site-specific polyclonal antibody serves as the detection antibody. An HRP-conjugated secondary antibody is then added and a colorimetric signal generated by enzymatic conversion of the tetramethylbenzidine (TMB) substrate. Protein levels were first determined using a colorimetric coomassie assay (Coomassie Plus, Thermo).
A subset of hits from our HTS was validated in a secondary assay. […] Thapsigargin also acts as a sarco/endoplasmic reticulum calcium ATPase (SERCA) inhibitor. Therefore, another SERCA inhibitor, 2,5-Di-tert-butylhydroquinone, was also added to the testing. In this secondary assay, CHO-7W cells were cultured as described above and plated into 24-well dishes at ∼200K/well. […] These hits were selected for their potency in primary screen, their structural features, their known activities, and availability of compound for additional testing. There were cerivastatin-only (negative control), + QVD-OPh (positive control), and for viability, vehicle-only (negative) controls. Cells were harvested by removing the media to a tube, adding […] trypsin to detach cells then neutralizing with media. […] Cells were centrifuged at 5000 rpm (2300 × g) for 5 min. Cell pellets were frozen until use. Forty μL cold RIPA buffer plus complete protease inhibitors (Roche) was added to each pellet and the pellets were reconstituted by pipetting up and down, incubating on ice for 30 min, vortexing, and centrifugation as above. Cell lysate supernatants were then assayed by APPΔC31 ELISA as described above. For most compounds, multiple/repeat studies were performed and two wells used for each condition. Statistical comparison was performed using one-way ANOVA for multiple comparisons, with a Dunnett post hoc test to compare each condition to the control. Further dose-response studies were performed on select compounds.

[2] = test system: CHO-7W cells; settings: with 10 μM cerivastatin
[3] = test system: APPΔC31 production in CHO-7W cells; experiment: Statin induction of APPΔC31, ELISA; format: cell-based, Chinese hamster; settings: 24 h
Method: An HRP-conjugated secondary antibody is then added and a colorimetric signal generated by enzymatic conversion of the tetramethylbenzidine (TMB) substrate. Protein levels were first determined using a colorimetric coomassie assay (Coomassie Plus, Thermo).
APPΔC31 was determined in cell lysates by ELISA.

[4] = target: caspase 8; settings: potency stated for the inhibitor, no reference given; cited from earlier work
[5] = test system: cerivastatin-induced APPΔC31 in CHO-7W cells; experiment: APPΔC31 AlphaLISA dose-response, cerivastatin-induced; format: cell-based, Chinese hamster; settings: 24 h; for pIC50: Cricetulus griseus
Method: The APPΔC31 AlphaLISA assay (Figures 2C–E) was run directly in the plate with the cell lysate as described above in “AlphaLISA to detect APPΔC31.” APPΔC31 levels were measured using the Envision plate reader and data were normalized to DMSO (100% APPΔC31 production) and Q-VD-OPh (MP Biomedicals) pan-caspase inhibitor at 30 μM (0%); these controls were present on each plate. In addition, some compounds of interest were further analyzed in a dose-response curve to determine IC50 values.
The broad-spectrum pan-caspase inhibitor Q-VD-OPh served as the positive control.
Lysates were prepared and APPΔC31 determined by ELISA. (B) CHO-7W cells were treated with 10 μM cerivastatin plus increasing doses of caspase and MEK inhibitors for 24 h. Lysates were prepared and APPΔC31 determined by AlphaLISA. Click here for additional data file.

[6] = PAMPA / immobilized artificial membrane (IAM.PC.DD2) chromatography; format: in vitro ADME
[7] = test system: sAPPα in CHO-7W cultures; experiment: sAPPα ELISA in cell media; format: cell-based, Chinese hamster; settings: QVD, Sp, 3′F-Sp at 10, 30, and 30 mM, respectively (so in the source), with 10 μM cerivastatin, 24 h, vs CS alone, n = 2
Method: (§1) In an additional study (Supplementary Figure S5A), measurement of the α secretase fragment of full length (FL) APP – soluble APP alpha (sAPPα) – was performed using cell media by ELISA (IBL). Furthermore, in two studies (Supplementary Figures S5B,C), total protein levels in CHO-7W cell lysates were determined by Coomassie Plus protein assay (Pierce).
(§2) Supplementary file Data_Sheet_1.docx: FIGURE S5 Effect of lead compounds on protein concentration and sAPPα. […] (B) Total protein from lysates of CHO-7W cells treated with either 30 μM QVD or 10 μM Sp alone for 24 h was similar to the vehicle control (n = 1). (C) Total protein from CHO-7W lysates treated with 10 μM CS alone or in combination with QVD, Sp, or 3′F-Sp at the concentrations shown increased (n = 1). Statistical analysis was performed using one-way ANOVA and Dunnett post-test for comparison to the 10 μM CS control (^∗∗p < 0.001, ^∗∗∗p < 0.0001). Click here for additional data file.

[8] = test system: cerivastatin-induced APPΔC31 in CHO-7W cells; experiment: APPΔC31 immunoblot of CHO-7W cell lysates; format: cell-based, Chinese hamster; settings: compound at 30 μM, 10 μM cerivastatin, 24 h
Method: For immunoprecipitation, approximately 300 μg cell lysate supernatants were brought to 250 μL with cold RIPA + PI buffer in microfuge tubes. One μL of 6E10 APP antibody (Covance) was added and the mixture was rotated overnight in a cold room. The next day, 25 μL of protein A/G beads (Santa Cruz Biotech) were added and the samples were rotated for 1.5 h in the cold room. The beads were then centrifuged down and washed four times with cold PBS. Forty μL 1x LDS sample buffer + DTT was added to the pellets, which were heated to 70°C for 10 min, vortexed and centrifuged. Supernatants were loaded onto Nupage 4–12% Bis-Tris gels (Life Technologies) for electrophoresis and were then transferred to 0.2 μm PVDF membrane for immunoblotting with the anti-APPΔC31 antibody.
(A) CHO-7W cells were treated with 10 μM cerivastatin (CS) along with varying concentrations of Q-VD-OPh (QVD) for 24 h. Cell lysates were prepared and immunoprecipitated with anti-APP (6E10) overnight at 4°C and then incubation with Protein A/G beads (Santa Cruz Biotech). The resulting pellets were incubated, electrophoresed using Nupage 4–12% Bis-Tris gels (Life Technologies) and the 0.2 μm PVDF membrane probed with anti-APPΔC31. (B) CHO-7W cells were treated with increasing concentrations of CS or 10 μM CS together with increasing concentrations of 3′-fluorobenzylspiperone maleate (3′-F-Sp) or 30 μM QVD for 24 h. […]

[9] = test system: CHO-7W cells; experiment: Total protein in CHO-7W cell lysates (Coomassie Plus); format: cell-based, Chinese hamster; settings: n = 1; for effect on protein concentration in lysates, compound alone (in words): QVD alone at 30 μM, spiperone alone at 10 μM, 24 h, vs vehicle; for effect on total protein concentration with cerivastatin (in words): QVD, spiperone, 3′fluorobenzylspiperone at 30, 10, and 10 μM, respectively, with 10 μM cerivastatin
Method: as §1, §2

[10] = In vivo pharmacokinetic analysis of spiperone; parameters: species or system mice (C57B6)
Method: As PAMPA is merely a predictive analysis of brain permeability, a pharmacokinetic (PK) study with spiperone was performed. […] Another 5 mice were injected intraperitoneally (IP) at the same dose. One mouse was euthanized from each dosing route group at 1, 2, 4, 6, and 8 h. This is done by ketamine/xylazine over- anesthesia followed by blood collection for plasma isolation by cardiac puncture, and transcardial perfusion of tissue with saline to remove residual blood from the brain. Both plasma and brain tissue were sent to Integrated Analytical Solutions (IAS, Berkeley, CA, USA) for compound level analysis using an LC-MS-MS method.

[11] = low concentrations (thapsigargin 0.033-0.3 μM, 2,5-Di-tert-butylhydroquinone 1 and 10 μM)
[12] = (E) ELISA, cerivastatin-induced
[13] = AlphaLISA dose-response (Figure 5C), cerivastatin-stimulated
[14] = dose-response curves, 10 μM cerivastatin, AlphaLISA

SMILES: CC(C)(C)c1cc(O)c(C(C)(C)C)cc1O [2,5-Di-tert-butylhydroquinone]
- inhibition of APPΔC31 production (in words) ([1]; 10 μM cerivastatin): very effective
- cell survival rescue (in words) [2, 11]: highest cell survival

SMILES: CC(C)c1c(C(=O)Nc2ccccc2)c(-c2ccccc2)c(-c2ccc(F)cc2)n1CC[C@@H](O)C[C@@H](O)CC(=O)O [Atorvastatin]
- induction of APPΔC31 (in words) ([3]; statins at 1, 5 and 10 μM): much less effective

SMILES: FC(F)(F)c1cccc(-c2csc(C3COc4ccccc4O3)n2)c1 (centres unmarked) [Caspase Inhibitor X]
- pIC50 [4]: 5.57
- inhibition of cerivastatin-induced APPΔC31 (in words) ([5]; highest concentration tested (30 μM), 10 μM cerivastatin, AlphaLISA): somewhat effective

SMILES: O=c1c(O)c(-c2ccc(O)cc2)oc2cc(O)cc(O)c12 [Kaempferol]
- APPΔC31 Inh. (mean %) ([1]; 10 μM cerivastatin): 65%
- pIC50 [1, 12]: < 5.00

- KIAM (IAM capacity factor) ([6]; IAM.PC.DD2 column, water/methanol gradient): 3.3
SMILES: O=c1[nH]c2ccccc2n1C1CCN(CCCC(c2ccc(F)cc2)c2ccc(F)cc2)CC1 [Pimozide]
- % Min (APPΔC31 dose-response) [5, 13]: 19%
- pIC50 ([5]; (A) AlphaLISA, cerivastatin-induced, read-out: IC50 (A), APPΔC31 inhibition): 5.44
- APPΔC31 Inh. (mean %) ([1]; 10 μM cerivastatin): 98%
- cell survival rescue (in words) ([2]; at 30 μM, among hits from HTS): greatest cell survival rescue effects

- effect on protein concentration in lysates, compound alone (in words) [9]: did not lower protein concentration
SMILES: CC(C)C(NC(=O)c1ccc2ccccc2n1)C(=O)NC(CC(=O)O)C(=O)COc1c(F)cccc1F (centres unmarked) [QVD-OPh, Q-VD-OPh]
- effect on sAPPα (in words) [7]: increased sAPPα
- % Min (APPΔC31 dose-response) [5, 13]: 0%
- pIC50 ([5]; AlphaLISA dose-response (Figure 5C), cerivastatin-stimulated, read-out: IC50, APPΔC31 inhibition): 5.12
- effect on simvastatin-induced APPΔC31 increase (in words) ([3]; 30 μM inhibitor plus 5 μM simvastatin): prevented 5 μM simvastatin-induced APPΔC31 increases
- effect on CS-induced APPΔC31 by immunoblot (in words) [8]: eliminated the cerivastatin-induced APPΔC31 increase
- APPΔC31 Inh. (mean %) ([1]; 10 μM cerivastatin): 95%
- pIC50 ([1]; ELISA, 10 μM cerivastatin): 5.12
- effect on total protein concentration with cerivastatin (in words) [9]: increased total protein concentration

SMILES: CO[C@H]1C[C@@H]2CC[C@@H](C)[C@@](O)(O2)C(=O)C(=O)N2CCCC[C@H]2C(=O)O[C@H]([C@H](C)C[C@@H]2CC[C@@H](O)[C@H](OC)C2)CC(=O)[C@H](C)/C=C(\C)[C@@H](O)[C@@H](OC)C(=O)[C@H](C)C[C@H](C)/C=C/C=C/C=C/1C [Rapamycin]
- APPΔC31 Inh. (mean %) ([1]; 10 μM cerivastatin): 99%
- pIC50 [1, 12]: < 5.00
- cell survival rescue (in words) ([2]; at 30 μM, among hits from HTS): greatest cell survival rescue effects

SMILES: Oc1ccc(-c2nc(-c3ccncc3)c(-c3ccc(F)cc3)[nH]2)cc1 [SB202190]
- APPΔC31 Inh. (mean %) ([1]; 10 μM cerivastatin): 58%
- pIC50 [1, 12]: < 5.00

SMILES: Cn1cc(C2=C(c3ccc(Cl)cc3Cl)C(=O)NC2=O)c2ccccc21 [SB216763]
- APPΔC31 Inh. (mean %) ([1]; 10 μM cerivastatin): 54%
- pIC50 [1, 12]: < 5.00

SMILES: N#C/C(=C(/N)Sc1ccc(N)cc1)c1ccccc1C(F)(F)F [SL327]
- inhibition of cerivastatin-induced APPΔC31 (in words) [5, 14]: ineffective

- effect on protein concentration in lysates, compound alone (in words) [9]: did not lower protein concentration
- Kp ([10]; male, C57B6, brain and plasma, other: subcutaneous and intraperitoneal (both routes), 0.25 mg/mouse, SQ and IP routes, read-out: brain:plasma ratio): ~0.5
- Cmax ([10]; male, C57B6, brain, mouse, intraperitoneal (IP), 10 mg/kg, n = 1 per time point, read-out: peak brain level (Cmax)): ~205 ng/g
- time of peak brain level ([10]; mouse, IP injection at 10 mg/kg): 1 h
- time of peak brain level ([10]; mouse, both the subcutaneous and intraperitoneal routes): 1 h
- peak brain level ([10]; mouse, subcutaneous, 50 μL of 5 mg/mL in DMSO, n = 1 per time point): ~70 ng/g
SMILES: O=C(CCCN1CCC2(CC1)C(=O)NCN2c1ccccc1)c1ccc(F)cc1 [Spiperone]
- effect on sAPPα (in words) [7]: increased sAPPα
- % Min (APPΔC31 dose-response) [5, 13]: 23%
- BBB Penetration Prediction ([6]; from KIAM/MW^4 x 10^10, cut-off 0.85): high (If KIAM/MW^4x10^10 > 0.85 the BBB penetration is predicted to be high)
- effect on total protein concentration with cerivastatin (in words) [9]: increased total protein concentration
- cell survival rescue (in words) ([2]; at 30 μM, among hits from HTS): greatest cell survival rescue effects

SMILES: CC/C(=C(\c1ccccc1)c1ccc(OCCN(C)C)cc1)c1ccccc1 [Tamoxifen]
- APPΔC31 Inh. (mean %) ([1]; 10 μM cerivastatin): 56%

SMILES: C/C=C(/C)C(=O)O[C@H]1C(C)=C2[C@H]([C@@H]1OC(=O)CCCCCCC)[C@@](C)(OC(C)=O)C[C@H](OC(=O)CCC)[C@@]1(O)[C@H]2OC(=O)[C@@]1(C)O [Thapsigargin]
- APPΔC31 Inh. (mean %) ([1]; 10 μM cerivastatin): 97%
- inhibition of APPΔC31 production (in words) ([1]; 10 μM cerivastatin): remarkably potent inhibitor
- pIC50 [1, 12]: 7.11
- cell survival rescue (in words) [2, 11]: highest cell survival

SMILES: CS/C(N)=C(C#N)/C(C#N)=C(\N)SC [U0124]
- inhibition of cerivastatin-induced APPΔC31 (in words) [5, 14]: ineffective

SMILES: N#CC(=C(/N)Sc1ccccc1N)/C(C#N)=C(/N)Sc1ccccc1N [U0126]
- reduction of APPΔC31 ([5]; from 10 to 50 μM, 10 μM cerivastatin, AlphaLISA): ~25%
